Results taken from patent EP2276347B1, “TOLTRAZURIL WITH IMPROVED DISSOLUTION PROPERTIES” (KRKA, tovarna zdravil, d.d., Novo mesto, priority 2008, dated 2009).

experiment: Specific surface area by nitrogen adsorption gas sorption (BET method); format: physicochemical; conditions: toltrazuril particles, outgased in vacuum at room temperature
Protocol: Specific surface area was measured by gas sorption system based on nitrogen adsorption, using Brunauer, Emmett and Teller (BET) method. Corresponding amount of sample was outgased in a vacuum at room temperature. After degasification the tube was weighed with sample and the analysis was proceeded.

Row | SMILES | Specific surface area [m^2/g]
1 | Cc1cc(-n2c(=O)[nH]c(=O)n(C)c2=O)ccc1Oc1ccc(SC(F)(F)F)cc1 [Example 3, toltrazuril] | 13.8
2 | Cc1cc(-n2c(=O)[nH]c(=O)n(C)c2=O)ccc1Oc1ccc(SC(F)(F)F)cc1 [Example 2, toltrazuril] | 15
3 | Cc1cc(-n2c(=O)[nH]c(=O)n(C)c2=O)ccc1Oc1ccc(SC(F)(F)F)cc1 [Example 5, toltrazuril] | 19.5
4 | Cc1cc(-n2c(=O)[nH]c(=O)n(C)c2=O)ccc1Oc1ccc(SC(F)(F)F)cc1 [micronized toltrazuril, toltrazuril] | 14.1
5 | Cc1cc(-n2c(=O)[nH]c(=O)n(C)c2=O)ccc1Oc1ccc(SC(F)(F)F)cc1 [Example 1, toltrazuril] | 13.8
6 | Cc1cc(-n2c(=O)[nH]c(=O)n(C)c2=O)ccc1Oc1ccc(SC(F)(F)F)cc1 [Example 4, toltrazuril] | 15.2
7 | Cc1cc(-n2c(=O)[nH]c(=O)n(C)c2=O)ccc1Oc1ccc(SC(F)(F)F)cc1 [Example 6, toltrazuril] | 18.8
